# From article PMC8440923, “Peptides Targeting the Interaction Between Erb1 and Ytm1 Ribosome Assembly Factors” (Frontiers in Molecular Biosciences, 2021)
# Residues, ends and D or L forms follow the SMILES beside them. No end group written: not given here. *: point of attachment. Biotin = O=C1N[C@H]2[C@H](CS[C@H]2CCCCC(=O)*)N1
# B1: Biot-P3 (N-terminally biotinylated Erb1 780-789) (peptide)
# peptide: Biotin-DWHPREPWCV
# notes: Erb1, Chaetomium thermophilum, residues 780-789; source: synthetic peptide, bought: Synpeptide Co., Ltd., Shanghai
# B2: Biot-P1 (N-terminally biotinylated Erb1 479-489) (peptide)
# peptide: Biotin-VWELLTGRQVW
# notes: Erb1, Chaetomium thermophilum, residues 479-489; source: synthetic peptide, bought: Synpeptide Co., Ltd., Shanghai
# B3: Peptide P1 (Erb1 479-489) (peptide)
# peptide: VWELLTGRQVW
# notes: as for B2
# Assays:
# Erb1 = assay: Biolayer interferometry peptide affinity assay, immobilized biotinylated peptide, Erb1 analyte; format: binding, Chaetomium thermophilum; conditions: BLI, streptavidin biosensor, Erb1 as analyte
# Experimental: (§1) Peptides were commercially obtained from Synpeptide Co., Ltd., Shanghai, China. All experiments have been made in triplicates and include control curves for bait and analyte only.
# BLI was used to determine the affinity between Ytm1 and biotinylated peptides using streptavidin biosensors (FortéBio). The biosensors were hydrated 10 min in the same buffer used on the interference assay, with 0.05% (w/v) bovine serum albumin (BSA). 50 µg/ml of biotinylated peptide was immobilized at the streptavidin biosensor. Increasing concentrations of Ytm1 were used to calculate the KD values using the Blitz Pro 1.2 software using the implemented equations for association and dissociation: […]
# According to P1, P3, and P6 results, a new N-terminal biotynilated peptide synthesis was ordered using the same sequences (Biot-P1, Biot-P3, and Biot-P6, Table 1). Biotynilated peptides Biot-P1 and Biot-P3 were immobilized to the streptavidin biosensor and Ytm1 binding was measured. Similarly, Biot-P6 was immobilized to the streptavidin biosensor followed by Erb1 binding. […] To further confirm the interaction a differential scanning fluorimetry assay was performed. […] Inconsistent results were obtained in DSF using Erb1 and a proper Tm could not be obtained so thermal shift could not be evaluated for P6.
# Erb1/Ytm1 complex [1] = molecular target: T1, Erb1/Ytm1 complex (Thermochaetoides thermophila, UniProt G0SCK6); assay: Biolayer interferometry peptide interference assay, immobilized Ytm1, Erb1 analyte preincubated with P4-P6; format: binding, Chaetomium thermophilum; conditions: BLI, 20 µM Erb1 preincubated with equimolar peptide, reference without peptide 1.201e-3
# T1 construct: 6xHis; made in house; host or cells: Erb1: Escherichia coli (DE3) BL21 CodonPlus (RIPL); Ytm1: Sf9 insect cells (baculovirus)
# T1 sequence (G0SCK6 whole entry, one chain of several): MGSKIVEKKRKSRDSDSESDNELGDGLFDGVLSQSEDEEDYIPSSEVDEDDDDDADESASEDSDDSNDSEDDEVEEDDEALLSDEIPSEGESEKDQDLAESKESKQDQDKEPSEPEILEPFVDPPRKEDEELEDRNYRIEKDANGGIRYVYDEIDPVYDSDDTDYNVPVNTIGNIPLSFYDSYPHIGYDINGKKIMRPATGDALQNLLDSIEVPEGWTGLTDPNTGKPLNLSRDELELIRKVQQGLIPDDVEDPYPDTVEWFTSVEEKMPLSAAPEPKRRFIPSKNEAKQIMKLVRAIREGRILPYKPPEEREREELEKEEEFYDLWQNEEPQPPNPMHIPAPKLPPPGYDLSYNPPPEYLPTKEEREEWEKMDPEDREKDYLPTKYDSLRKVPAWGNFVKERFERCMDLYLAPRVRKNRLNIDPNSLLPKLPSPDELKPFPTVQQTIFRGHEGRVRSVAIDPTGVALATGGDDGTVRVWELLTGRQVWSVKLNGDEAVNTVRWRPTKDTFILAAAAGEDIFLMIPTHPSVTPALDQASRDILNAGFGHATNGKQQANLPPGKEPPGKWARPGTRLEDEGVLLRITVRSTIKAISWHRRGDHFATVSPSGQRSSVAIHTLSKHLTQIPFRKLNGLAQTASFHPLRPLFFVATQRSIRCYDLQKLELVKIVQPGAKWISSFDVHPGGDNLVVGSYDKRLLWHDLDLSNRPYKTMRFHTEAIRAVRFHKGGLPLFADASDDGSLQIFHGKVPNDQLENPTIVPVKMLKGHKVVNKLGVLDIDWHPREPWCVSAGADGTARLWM
# Erb1/Ytm1 complex [2] = molecular target: T2, Erb1/Ytm1 complex (Thermochaetoides thermophila, UniProt G0SFB5); assay: Biolayer interferometry peptide interference assay, immobilized Erb1, Ytm1 analyte preincubated with P1-P3; format: binding, Chaetomium thermophilum; conditions: BLI, 5 µM Ytm1 preincubated with equimolar peptide, reference without peptide 1.724e-3
# T2 construct: 6xHis; made in house; host or cells: Ytm1: Sf9 insect cells (baculovirus); Erb1: Escherichia coli (DE3) BL21 CodonPlus (RIPL)
# T2 sequence (G0SFB5 1-495): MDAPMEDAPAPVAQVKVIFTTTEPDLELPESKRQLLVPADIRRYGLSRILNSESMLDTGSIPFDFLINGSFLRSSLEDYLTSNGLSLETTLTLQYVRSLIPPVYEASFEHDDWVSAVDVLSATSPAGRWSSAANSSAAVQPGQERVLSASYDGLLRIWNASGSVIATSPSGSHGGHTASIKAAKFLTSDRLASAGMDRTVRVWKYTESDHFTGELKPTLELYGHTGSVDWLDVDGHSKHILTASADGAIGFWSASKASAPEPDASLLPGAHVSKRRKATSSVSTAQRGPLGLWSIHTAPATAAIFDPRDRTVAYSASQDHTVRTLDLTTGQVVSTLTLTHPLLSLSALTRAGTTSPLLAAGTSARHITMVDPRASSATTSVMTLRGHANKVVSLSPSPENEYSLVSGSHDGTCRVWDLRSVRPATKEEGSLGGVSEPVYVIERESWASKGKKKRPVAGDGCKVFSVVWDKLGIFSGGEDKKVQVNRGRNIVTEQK
# Experimental: as §1
# Potential interference peptide samples were evaluated by their ability to interfere the kinetics and affinity of the complex between Erb1 and Ytm1 as measured by Biolayer Interferometry (BLItz, Pall FortéBio Corp.) using Ni-NTA biosensors (FortéBio) and 50 mM HEPES, pH 7.5; 150 mM NaCl; 5% (v/v) glycerol; and 2 mM β-mercaptoethanol (BME) buffer. To set the reference KD, an 80 µg/ml solution of Erb1 was immobilized to the biosensor in order to obtain binding curves for increasing concentrations of Ytm1. According to this, an evaluation of Erb1-derived peptides (P1–P3) was performed using 5 µM Ytm1 previously incubated during 30 min at equimolar concentrations of each peptide. New KD values were determined. […]
# Biolayer interferometry interference assays were used to evaluate the ability of each peptide to interfere in the in vitro formation of the Erb1/Ytm1 complex. […] Peptides were evaluated for their ability to decrease in the Erb1/Ytm1 complex formation by preincubating the analyte with each peptide derived from the immobilized partner. […] Erb1-derived peptides were evaluated by their ability to decrease Erb1/Ytm1 complex affinity. […]
# Ytm1 [3] = molecular target: T3, Ytm1 (Thermochaetoides thermophila, UniProt G0SFB5); assay: Differential scanning fluorimetry (thermofluor) of Ytm1 with peptide; format: binding, Chaetomium thermophilum; conditions: DSF, SYPRO Orange 1:1,000; 5 µM Ytm1, 1 mM peptide; 50 mM HEPES pH 7.5, 150 mM NaCl; 20-85°C at 1°C/min; triplicates
# T3 construct: 6xHis; made in house; host or cells: Sf9 insect cells (baculovirus)
# T3 sequence (G0SFB5 1-495): T2 sequence (G0SFB5 1-495)
# Experimental: Thermofluor assays ([Pantoliano et al., 2001]) were performed on a 7,500 Fast Real-Time PCR System (Applied Biosystems) measuring the gradual fluorescence generated by a 1:1,000 dilution of SYPRO Orange Protein Stain Gel (Supelco, Merck-Sigma) along with 1°C/min temperature increase from 20°C until 85°C.
# The samples were mixed containing the protein Ytm1 at 5 µM in 50 mM HEPES pH 7.5, 150 mM NaCl and peptides P1-P3 at 1 mM concentration. Previously, lyophilized P2 and P3 were resuspended in the same Ytm1 buffer and P1 was solubilized in 10 mM Tris (hydroxymethyl)-methylamine (Tris-HCl), pH 8.8 for P1. Data of triplicated experiments were analyzed using GraphPad Prism 5.01 software.
# Ytm1 [4] = molecular target: T3, Ytm1; assay: Biolayer interferometry peptide affinity assay, immobilized biotinylated peptide, Ytm1 analyte; set-up: species or system Chaetomium thermophilum; conditions: BLI, streptavidin biosensor, 50 µg/ml biotinylated peptide immobilized, read-out: ka (1/Ms) of Ytm1 binding to immobilized biotinylated peptide
# Experimental: as §1
# BLI was used to determine the affinity between Ytm1 and biotinylated peptides using streptavidin biosensors (FortéBio). The biosensors were hydrated 10 min in the same buffer used on the interference assay, with 0.05% (w/v) bovine serum albumin (BSA). 50 µg/ml of biotinylated peptide was immobilized at the streptavidin biosensor. Increasing concentrations of Ytm1 were used to calculate the KD values using the Blitz Pro 1.2 software using the implemented equations for association and dissociation:
# Association phase: y=Rmax 1/1+kd/ka∗[Analyte](1−e^−(ka∗[Analyte]+kd)x) .
# Dissociation phase: y=y0 e^−kd(x−x0). y0=Rmax 1/1+kd/ka∗[Analyte](1−e^−(ka∗[Analyte]+kd)x0).
# According to P1, P3, and P6 results, a new N-terminal biotynilated peptide synthesis was ordered using the same sequences (Biot-P1, Biot-P3, and Biot-P6, Table 1). Biotynilated peptides Biot-P1 and Biot-P3 were immobilized to the streptavidin biosensor and Ytm1 binding was measured. Similarly, Biot-P6 was immobilized to the streptavidin biosensor followed by Erb1 binding. […] Inconsistent results were obtained in DSF using Erb1 and a proper Tm could not be obtained so thermal shift could not be evaluated for P6.
# [5] = molecular target: T4, Ytm1 (Chaetomium thermophilum ribosome assembly factor) (Chaetomium thermophilum, UniProt G0SFB5 1-495); assay: BLI
# T4 chain: T2 sequence (G0SFB5 1-495)
# [6] = molecular target: T5, Ytm1 (Chaetomium thermophilum ribosome assembly factor) (Chaetomium thermophilum, UniProt G0SFB5 1-495); assay: BLI; biotinylated peptide (50 µg/ml) immobilised on streptavidin biosensor; Ytm1 (or Erb1 for Biot-P6) as analyte; interference-assay buffer with 0.05% BSA; conditions: both partners purified
# T5 construct: Ytm1, Chaetomium thermophilum; YTM1 gene amplified from total cDNA and cloned in pOPIN-F; For MST, Ytm1 was labelled with the Red-NHS second-generation dye; source: Sf9 insect cells (baculovirus), purified (Histrap-HP Ni, Superdex 200 SEC)
# T5 sequence: T2 sequence (G0SFB5 1-495)
# [7] = molecular target: T5, Ytm1 (Chaetomium thermophilum ribosome …); assay: MST; 5 nM Ytm1 labelled with Red-NHS second-generation dye; 50 mM HEPES pH 7.5, 150 mM NaCl, 0.1% Pluronic F-127; peptide in sixteen serial dilutions (P1 1,230-0.0751 µM; P3 maximum 1,580 µM); Monolith NT.115; conditions: both partners purified
molecule,measurement,setting,value
Biotin-RGHANKV [Biot-P6],Binding of Erb1 to immobilized biotinylated peptide,Erb1,could not detect binding
same,Binding of Erb1 to immobilized biotinylated peptide,Erb1; listed as biot-P6,did not show binding
"AGMDRTV [Peptide P5, Ytm1-derived peptide AGMDRTV, residues 194–200]",kd (1/s) of Ytm1/Erb1 binding after preincubation of Erb1 with peptide,Erb1/Ytm1 complex [1],0.001655 s⁻¹
"QQTIFRGH [Peptide P2, Erb1-derived peptide QQTIFRGH, residues 445–452]",kd (1/s) of Erb1/Ytm1 binding after preincubation of Ytm1 with peptide,Erb1/Ytm1 complex [2],0.01393 s⁻¹
same,Thermal shift (Tm) of Ytm1 in the presence of peptide,Ytm1 [3],no significant thermal shift
CC(C)[C@H](NC(=O)[C@H](CS)NC(=O)[C@H](Cc1c[nH]c2ccccc12)NC(=O)[C@@H]1CCCN1C(=O)[C@H](CCC(=O)O)NC(=O)[C@H](CCCNC(=N)N)NC(=O)[C@@H]1CCCN1C(=O)[C@H](Cc1c[nH]cn1)NC(=O)[C@H](Cc1c[nH]c2ccccc12)NC(=O)[C@H](CC(=O)O)NC(=O)CCCC[C@@H]1SC[C@@H]2NC(=O)N[C@@H]21)C(=O)O [Biot-P3] (Biotin-DWHPREPWCV-OH),kon,Ytm1 [4],829 M⁻¹ s⁻¹
CC(C)C[C@H](NC(=O)[C@H](CCC(=O)O)NC(=O)[C@H](Cc1c[nH]c2ccccc12)NC(=O)[C@@H](NC(=O)CCCC[C@@H]1SC[C@@H]2NC(=O)N[C@@H]21)C(C)C)C(=O)N[C@@H](CC(C)C)C(=O)N[C@H](C(=O)NCC(=O)N[C@@H](CCCNC(=N)N)C(=O)N[C@@H](CCC(N)=O)C(=O)N[C@H](C(=O)N[C@@H](Cc1c[nH]c2ccccc12)C(=O)O)C(C)C)[C@@H](C)O [Biot-P1] (Biotin-VWELLTGRQVW-OH),kon,Ytm1 [4],386 M⁻¹ s⁻¹
"HDDWVSA [Peptide P4, Ytm1-derived peptide HDDWVSA, residues 110–116]",kd (1/s) of Ytm1/Erb1 binding after preincubation of Erb1 with peptide,Erb1/Ytm1 complex [1],0.001585 s⁻¹
B1,Kd,[5],6.29 µM
same,binding result,[6],binds
B2,Kd,[5],33.4 µM
same,binding result,[6],binds
B3,Kd,[7],8.2 µM
